From PMC8237267 (Journal of Medicinal Chemistry, 2021)
Several values for one entry are separate records, joined by “and”; a condition that tells them apart may be missing. Equal values may be shown once. Read-outs that look alike come from different tables or passages of the source.

Key:
[1] = Glutathione stability / reactivity assay; format: in vitro ADME
Description: Although covalent modification of HDAC6 was not observed (Figure S2), the PFBS group is susceptible to nucleophilic aromatic substitution by biological nucleophiles. A previously described high-throughput in vitro glutathione-reactivity assay was conducted, where compounds were incubated in the presence of glutathione (GSH) and the formation of a GSH-compound adduct was monitored over time via LC/MS/MS.[50]
Compound was added to PBS and 5 mM GSH to reach a final concentration of 5 μM. […] Samples were vortexed and centrifuged for 45 min at 3220g. Aliquots were diluted by ultrapure water, and used for LC/MS/MS analysis. Peak area ratios were determined and percent compounds remaining was calculated by the following equation: [drawing 1] where peak area ratio (t min) is the peak area ratio of control and test compounds at t min; peak area ratio0min is the peak area ratio of control and test compounds at the zero time point. In vitro half-life (t1/2) = −(0.693/k).

MRC-9 = assay: Cytotoxicity assay (Cell Titer-Blue, 72 h); format: cell-based; conditions: MRC9; MRC-9 (healthy fibroblasts); read-out: In cellulo IC50 MRC-9
MV4-11 = assay: Cytotoxicity assay (Cell Titer-Blue, 72 h); format: cell-based; conditions: Homo sapiens; MV4-11 (AML); read-out: In cellulo IC50 MV4-11
[2] = Stability in mouse plasma; format: in vitro ADME; design: half-life at 2 h: dose or concentration left out as unconfirmed; conditions: read-out: Plasma stability t1/2
Description: The plasma stability of the compounds was evaluated in mouse plasma provided from Sigma-Aldrich, Oakville, Canada. The main stock solutions of the compounds were prepared at 10 mM in DMSO, which was diluted to 100 μM in 50% acetonitrile (ACN)/50% water. Aliquots of 356.5 μL of plasma proteins were placed in a heating block and allowed to equilibrate at 37 °C for 5 min. Then, 3.5 μL of 100 μM compound solutions were added to each vial (final concentration of 1 μM). Three quality control (QC) samples at 100, 500, and 1000 nM were prepared in 0.5% ACN. The vial contents were transferred in 50 μL aliquots at time points of 0.5, 5, 10, 20, 30, and 60 mi to a 96-well autosampler plate containing 150 μL of protein precipitation solution. Ice-cold ACN containing internals standards (100 nM glyburide) were used as the protein precipitation solution. After centrifugation at 4 °C, 5500 rpm for 15 min, the supernatant was diluted in MQ water, and injected into the LC/MS/MS for quantitative analysis.
The mobile phase consisted of (A) 0.1% (v/v) formic acid in Milli-Q water; (B) 0.1% (v/v) formic acid in acetonitrile. […] Peak areas were determined from extracted ion chromatograms. The in vitro half-life (t1/2) of parent compounds were determined by regression analysis of the percent parent disappearance vs time curve.

HDAC6 [3] = target: T1, HDAC6 (Homo sapiens, UniProt Q9UBN7); assay: HDAC EMSA activity assay (Nanosyn); format: biochemical; design: The full-length human HDACs were recombinantly expressed and purified from SF9 insect cells; host or cells: SF9 insect cells; conditions: for HDAC6 fold-selectivity: over the next closest HDAC isoform tested, * = selectivity ≥ indicated value; for IC50: EMSA (Nanosyn)
T1 sequence (Q9UBN7 1-1215): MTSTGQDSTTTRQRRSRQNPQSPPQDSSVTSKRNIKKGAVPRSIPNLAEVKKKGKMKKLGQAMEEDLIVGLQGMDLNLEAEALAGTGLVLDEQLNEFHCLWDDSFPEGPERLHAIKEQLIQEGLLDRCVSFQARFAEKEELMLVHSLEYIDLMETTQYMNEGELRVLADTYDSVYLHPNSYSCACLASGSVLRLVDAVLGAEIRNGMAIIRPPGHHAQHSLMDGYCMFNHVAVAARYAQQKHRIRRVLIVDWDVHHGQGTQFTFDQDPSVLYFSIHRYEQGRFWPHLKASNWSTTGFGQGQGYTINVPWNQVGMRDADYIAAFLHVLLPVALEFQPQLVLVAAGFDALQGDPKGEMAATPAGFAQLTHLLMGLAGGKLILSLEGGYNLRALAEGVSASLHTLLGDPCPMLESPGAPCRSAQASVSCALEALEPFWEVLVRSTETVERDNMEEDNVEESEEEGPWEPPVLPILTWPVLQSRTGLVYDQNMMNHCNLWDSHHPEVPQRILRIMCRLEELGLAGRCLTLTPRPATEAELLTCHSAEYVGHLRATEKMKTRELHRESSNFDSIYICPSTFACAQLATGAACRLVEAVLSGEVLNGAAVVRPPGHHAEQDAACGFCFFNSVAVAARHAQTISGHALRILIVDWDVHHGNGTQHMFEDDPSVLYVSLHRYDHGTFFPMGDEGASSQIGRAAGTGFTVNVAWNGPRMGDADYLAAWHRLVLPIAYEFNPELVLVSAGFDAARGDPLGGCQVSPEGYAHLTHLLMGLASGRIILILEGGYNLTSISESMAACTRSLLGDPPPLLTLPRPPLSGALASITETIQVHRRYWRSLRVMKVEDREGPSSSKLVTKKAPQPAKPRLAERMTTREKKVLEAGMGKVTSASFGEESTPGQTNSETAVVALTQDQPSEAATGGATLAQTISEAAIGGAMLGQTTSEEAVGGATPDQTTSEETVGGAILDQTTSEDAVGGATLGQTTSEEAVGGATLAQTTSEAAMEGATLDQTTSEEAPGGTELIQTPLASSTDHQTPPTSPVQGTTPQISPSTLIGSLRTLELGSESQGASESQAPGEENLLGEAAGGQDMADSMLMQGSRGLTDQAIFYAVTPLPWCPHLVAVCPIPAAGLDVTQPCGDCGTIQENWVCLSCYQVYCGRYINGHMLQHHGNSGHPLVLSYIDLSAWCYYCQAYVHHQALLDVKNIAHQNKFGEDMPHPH

HDAC3 = target: T2, HDAC3 (Homo sapiens, UniProt O15379); assay: HDAC EMSA activity assay (Nanosyn); format: biochemical; conditions: recombinant enzyme, read-out: In vitro IC50 HDAC3
T2 construct: The full-length human HDACs were recombinantly expressed and purified from SF9 insect cells; host or cells: SF9 insect cells

HDAC8 = target: T3, HDAC8 (Homo sapiens, UniProt Q9BY41); assay: HDAC EMSA activity assay (Nanosyn); format: biochemical; conditions: recombinant enzyme, EMSA (Nanosyn); read-out: In vitro IC50 HDAC8
T3 construct: The full-length human HDACs were recombinantly expressed and purified from SF9 insect cells; host or cells: SF9 insect cells
T3 sequence (Q9BY41 1-377): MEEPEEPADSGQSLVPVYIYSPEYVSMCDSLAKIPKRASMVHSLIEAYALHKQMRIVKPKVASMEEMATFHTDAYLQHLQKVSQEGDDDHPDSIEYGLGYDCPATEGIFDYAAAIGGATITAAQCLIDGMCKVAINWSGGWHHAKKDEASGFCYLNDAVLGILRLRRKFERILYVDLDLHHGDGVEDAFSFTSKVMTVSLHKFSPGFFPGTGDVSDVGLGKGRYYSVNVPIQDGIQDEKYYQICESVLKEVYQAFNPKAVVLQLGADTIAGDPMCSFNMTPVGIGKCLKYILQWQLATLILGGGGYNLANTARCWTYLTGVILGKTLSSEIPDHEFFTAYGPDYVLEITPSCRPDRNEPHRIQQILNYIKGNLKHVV

HDAC11 = target: T4, HDAC11 (Homo sapiens, UniProt Q96DB2); assay: HDAC EMSA activity assay (Nanosyn); format: biochemical; conditions: recombinant enzyme, read-out: In vitro IC50 HDAC11
T4 construct: The full-length human HDACs were recombinantly expressed and purified from SF9 insect cells; host or cells: SF9 insect cells
T4 sequence (Q96DB2 1-347): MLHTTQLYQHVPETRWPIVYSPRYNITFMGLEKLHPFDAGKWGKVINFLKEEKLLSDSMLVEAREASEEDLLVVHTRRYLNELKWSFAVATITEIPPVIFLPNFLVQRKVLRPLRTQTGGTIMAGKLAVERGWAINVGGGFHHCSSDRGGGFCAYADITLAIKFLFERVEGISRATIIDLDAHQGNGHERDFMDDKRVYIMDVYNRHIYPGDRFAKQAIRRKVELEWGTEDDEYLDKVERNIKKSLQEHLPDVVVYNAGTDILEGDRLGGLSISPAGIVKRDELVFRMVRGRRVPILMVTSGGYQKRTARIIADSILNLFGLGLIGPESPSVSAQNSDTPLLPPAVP

HDAC6 [4] = target: T1, HDAC6; assay: Time-dependent IC50 assay with preincubation (0-6 h); format: biochemical; conditions: 6 h time-dependent assay
Description: The binding kinetics profile of KT-531 was also investigated by determining the association (kon)/dissociation (koff) rates as well as residence time parameters. The in vitro residence time (1/kobs) for the KT-531–HDAC6 complex was determined to be 23.18 min, as compared to 10.72 min for 1.

[5] = In vitro stability in mouse hepatocytes; format: in vitro ADME; conditions: read-out: Stability in mouse hepatocytes t1/2
Description: The inhibitors (and controls) were formulated to concentrations of 100 μM in 50% acetonitrile/50% water. The medium (William’s E Medium supplemented with GlutaMAX) and hepatocyte thawing medium were allowed to reach room temperature and the hepatocytes and thawing medium and centrifuged at 100 g for 10 min. The supernatant was removed, and hepatocytes resuspended in the incubation medium (∼1.5 × 10^6 cells/mL). The cells were diluted to 0.5 × 10^6 viable cells/mL. A volume of 198 μL of hepatocytes was transferred to a 96-well noncoated plate and incubated at 37 °C for 10 min. Following this, 2 μL of the 100 μM test compounds or positive control was transferred into respective wells to start the reaction. At different time points (0, 15, 30, 60, 90, and 120 min), 25 μL aliquots were mixed with 6 volumes (150 μL) of acetonitrile containing internal standard, IS (100 nM alprazolam, 200 nM labetalol, 200 nM caffeine, and 200 nM diclofenac) to terminate the reaction. Samples were vortexed for 5 min and centrifuged for 45 min at 3220g, diluted by ultrapure water, followed by LC/MS/MS analysis. The in vitro half-life (T1/2) was determined by regression analysis of the percent parent disappearance vs time curve (T1/2 = 0.693/k) using Microsoft Excel.

[6] = Stability in hepatocytes (species not stated); format: in vitro ADME; design: dose or concentration left out as unconfirmed; conditions: mouse, species not given
[7] = Stability in human hepatocytes; format: in vitro ADME; conditions: read-out: t1/2 in human hepatocytes
HDAC6 [8] = target: T1, HDAC6; assay: Reversibility of inhibition (Koff kinetics), residence time; format: biochemical; conditions: compound-HDAC6 complex; read-out: in vitro residence time (1/kobs)
Text: Progress curves were obtained after dilution, and enzyme recovery was fitted with the following equation: % conv = Vs × t + (Vi – Vs)/Kobs app × (1 – exp(−Kobs app × t), in which Vi is the initial velocity, Vs is steady state velocity, and Kobs is the observed rate constant. The obtained Kobs rate constant was used to determine the reversibility of inhibition and calculate residence time as 1/2Tres = ln2 × 1/Kobs.

[9] = recombinant enzyme, read-out: In vitro IC50 HDAC6
[10] = PBS with 5 mM glutathione (GSH), 5 mM GSH, PBS, read-out: half-life in incubation with GSH

T2 sequence (O15379 whole entry): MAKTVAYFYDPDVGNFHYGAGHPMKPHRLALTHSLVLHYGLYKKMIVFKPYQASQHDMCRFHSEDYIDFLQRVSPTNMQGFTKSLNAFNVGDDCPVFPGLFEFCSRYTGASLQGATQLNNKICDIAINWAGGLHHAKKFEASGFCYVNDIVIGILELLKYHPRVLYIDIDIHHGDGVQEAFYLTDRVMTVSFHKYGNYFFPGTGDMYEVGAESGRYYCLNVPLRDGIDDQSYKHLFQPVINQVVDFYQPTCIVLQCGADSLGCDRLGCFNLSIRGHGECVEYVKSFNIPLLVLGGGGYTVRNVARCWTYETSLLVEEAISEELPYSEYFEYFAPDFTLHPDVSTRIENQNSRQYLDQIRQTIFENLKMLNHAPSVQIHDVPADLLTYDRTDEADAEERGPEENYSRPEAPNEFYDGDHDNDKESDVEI
T2 sequence (Q9Y618 395-489 partner limits assumed): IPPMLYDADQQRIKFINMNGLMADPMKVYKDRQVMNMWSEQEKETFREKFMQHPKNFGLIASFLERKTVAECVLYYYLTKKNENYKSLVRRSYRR

SMILES | reactivity with glutathione ([1]; GSH adduct formation by LC/MS/MS, KT-531 up to 24 h) | IC50 (MRC-9) | IC50 (MV4-11) | half-life at 2 h [2] | HDAC6 fold-selectivity (HDAC6 [3]) | IC50 (HDAC6 [3]; [9]) | IC50 (HDAC3) | IC50 (HDAC8) | IC50 (HDAC11) | reversibility of binding (IC50 over preincubation time) (HDAC6 [4]) | half-life at 5 μM [1, 10] | half-life at 2 h, 5 µM [1, 10] | IC50 (HDAC6 [3]; read-out: IC50 HDAC6) | half-life at 1 μM [5] | half-life at 2 h [6] | half-life [7] | residence time (HDAC6 [8])
O=C(NO)c1ccc(CN(C2CC2)S(=O)(=O)c2c(F)c(F)cc(F)c2F)cc1 [Compound 6, 4-(((N-Cyclopropyl-2,3,5,6-tetrafluorophenyl)sulfonamido)methyl)-N-hydroxybenzamide] | unreactive toward GSH | > 15 µM | 6.14 µM | 25 min | 37.8 fold | 10 nM | > 1000 nM | 378 nM | > 1000 nM | – | – | – | – | – | – | – | –
O=C(NO)c1ccc(CN(C2CC2)S(=O)(=O)c2c(F)c(F)c(F)c(F)c2F)cc1 [Compound 5, 4-(((N-Cyclopropyl-2,3,4,5,6-pentafluorophenyl)sulfonamido)methyl)-N-hydroxybenzamide] | – | > 20 µM | – | – | – | – | 70 nM | 29 nM | 47 nM | unchanged IC50 values | ~20 min | 20 min | 0.9 nM | < 2.26 min | 3 min | 3.84 min | –
O=C(NO)c1ccc(CNC(=O)c2c(F)c(F)c(F)c(F)c2F)cc1 [Compound 1, 2,3,4,5,6-Pentafluoro-N-(4-(hydroxycarbamoyl)benzyl)benzamide] | – | > 50 µM | 1.85 µM | – | 36 fold and 36.32 fold | 6 nM | 200 nM | 700 nM | > 1000 nM | – | – | – | 5.9 nM | – | – | – | 10.7 min
